In ChEMBL document CHEMBL1148877, “Evaluation of 4'-substituted bicyclic pyridones as non-steroidal inhibitors of steroid 5alpha-reductase” (Bioorg Med Chem Lett, 2007):

Legend:
[1] = molecular target: T1, 3-oxo-5-alpha-steroid 4-dehydrogenase 1 (Homo sapiens) (UniProt P18405); assay: Inhibition of steroid 5-alpha reductase type 1 expressed in HEK 293 cells at 10 uM; type: cell-based; settings: HEK293
T1 sequence (whole entry): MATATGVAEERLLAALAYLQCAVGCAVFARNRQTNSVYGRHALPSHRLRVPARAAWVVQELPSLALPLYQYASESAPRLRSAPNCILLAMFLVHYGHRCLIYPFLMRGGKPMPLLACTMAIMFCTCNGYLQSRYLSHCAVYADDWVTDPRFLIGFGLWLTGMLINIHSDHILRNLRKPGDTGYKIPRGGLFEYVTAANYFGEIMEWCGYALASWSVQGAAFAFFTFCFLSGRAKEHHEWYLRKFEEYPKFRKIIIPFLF

[2] = molecular target: T2, 3-oxo-5-alpha-steroid 4-dehydrogenase 1 (Homo sapiens, UniProt P18405); assay: Inhibition of steroid 5-alpha reductase type 1 expressed in HEK 293 cells; type: cell-based, HEK293
T2 sequence (P18405 whole entry): T1 sequence (whole entry)

[3] = molecular target: T3, 3-oxo-5-alpha-steroid 4-dehydrogenase 2 (Homo sapiens, UniProt P31213); assay: Inhibition of steroid 5-alpha reductase type 2 expressed in HEK 293 cells; type: cell-based, HEK293
T3 sequence (P31213 whole entry): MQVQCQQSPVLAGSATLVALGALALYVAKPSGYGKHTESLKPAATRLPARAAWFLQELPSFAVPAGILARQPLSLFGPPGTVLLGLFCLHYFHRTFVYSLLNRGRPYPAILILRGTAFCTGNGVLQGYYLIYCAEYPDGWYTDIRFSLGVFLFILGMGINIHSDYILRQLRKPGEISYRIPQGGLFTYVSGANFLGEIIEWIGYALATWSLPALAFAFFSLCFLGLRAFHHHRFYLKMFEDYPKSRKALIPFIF

[4] = molecular target: T4, 3-oxo-5-alpha-steroid 4-dehydrogenase 2 (Homo sapiens) (UniProt P31213); assay: Inhibition of steroid 5-alpha reductase type 2 expressed in HEK 293 cells at 10 uM; type: cell-based; settings: HEK293
T4 sequence (whole entry): T3 sequence (P31213 whole entry)

Row | inhibition [1] | Structure (SMILES) | further results
1 | 43% | CC(=O)SCCCCCCCCCCCCCCCC(=O)NCCOC(=O)CC/C=C/CNC(=O)COc1ccc(-c2ccc(=O)n(C)c2)cc1 | –
2 | 6% | CC(C)N(C(=O)COc1ccc(C2CCC(=O)N(C)C2)cc1)C(C)C (stereo unspecified) | –
3 | 6% | C=CCNC(=O)COc1ccc(-c2ccc(=O)n(C)c2)cc1 | –
4 | 3% | CC1CC(=O)C=CN1c1ccc(OCC(=O)N(C(C)C)C(C)C)cc1 (stereo unspecified) | –
5 | – | CC(C)(C)NC(=O)[C@H]1CC[C@H]2[C@@H]3CC[C@H]4NC(=O)C=C[C@]4(C)[C@H]3CC[C@]12C [FINASTERIDE] | IC50 [2]: 453 nM; IC50 [3]: 25 nM
6 | 61% | Cn1cc(-c2ccc(C(=O)Cc3ccccc3)cc2)ccc1=O | –
7 | 8% | C=CCNC(=O)COc1ccc(N2C=CC(=O)CC2C)cc1 (stereo unspecified) | inhibition [4]: 12%
8 | 33% | CC(=O)SCCCCCCCCCCCCCCCC(=O)NCCOCCOC(=O)CC/C=C/CNC(=O)COc1ccc(-c2ccc(=O)n(C)c2)cc1 | –
9 | 8% | CC(C)NC(=O)COc1ccc(-c2ccc(=O)n(C)c2)cc1 | –
